Experimental data from article PMC8604237 (Clinical and Translational Science, 2021).

Legend:
patients with SBS [1] = assay: Time- and exposure-response analysis of prescribed PS; assay type: in vivo, human; details: for percent change from baseline of prescribed PS volume (maximum) / percent change from baseline of PS volume (maximum): 0.05 mg/kg
[2] = cited from earlier work
[3] = Population PK analysis of teduglutide; assay type: in vivo, human
patients with SBS [4] = details: cited from earlier work
[5] = single dose, non-Japanese adults; cited from earlier work
[6] = single and repeated doses up to 20 mg

Compound: CC[C@H](C)[C@H](NC(=O)[C@H](Cc1ccccc1)NC(=O)[C@H](CC(=O)O)NC(=O)[C@H](CCCNC(=N)N)NC(=O)[C@H](C)NC(=O)[C@H](C)NC(=O)[C@H](CC(C)C)NC(=O)[C@H](CC(N)=O)NC(=O)[C@H](CC(=O)O)NC(=O)[C@H](CC(C)C)NC(=O)[C@@H](NC(=O)[C@@H](NC(=O)[C@H](CC(N)=O)NC(=O)[C@H](CCSC)NC(=O)[C@H](CCC(=O)O)NC(=O)[C@H](CC(=O)O)NC(=O)[C@H](CO)NC(=O)[C@H](Cc1ccccc1)NC(=O)[C@H](CO)NC(=O)CNC(=O)[C@H](CC(=O)O)NC(=O)CNC(=O)[C@@H](N)Cc1c[nH]cn1)[C@@H](C)O)[C@@H](C)CC)C(=O)N[C@@H](CC(N)=O)C(=O)N[C@@H](Cc1c[nH]c2ccccc12)C(=O)N[C@@H](CC(C)C)C(=O)N[C@H](C(=O)N[C@@H](CCC(N)=O)C(=O)N[C@H](C(=O)N[C@@H](CCCCN)C(=O)N[C@H](C(=O)N[C@H](C(=O)N[C@@H](CC(=O)O)C(=O)O)[C@@H](C)O)[C@@H](C)CC)[C@@H](C)O)[C@@H](C)CC [teduglutide]
- percent change from baseline of prescribed PS volume (maximum) (patients with SBS [1]; Japanese pediatric patients with SBS): −29.7%
- percent change from baseline of PS volume (maximum) (patients with SBS [1]; adult Japanese patients with SBS): −62.6%
- percent change from baseline of PS volume (maximum) (patients with SBS [1]; adult non-Japanese patients with SBS): −54.9%
- percent change from baseline of prescribed PS volume (maximum) (patients with SBS [1]; non-Japanese pediatric patients with SBS): −74.7%
- maximum reduction in PS (patients with SBS [1]; daily dosing of 0.05 mg/kg): 5.76 L/week
- E max of teduglutide on prescribed PS volume (patients with SBS [1]; final time- and exposure-response model, change from baseline in prescribed PS volume): −5.76 L/week
- terminal elimination half-life [2]: ~ 2 h
- time of maximum plasma levels after dosing ([2]; s.c. injection): 3 to 5 h
- accumulation [2, 6]: no accumulation
- rate and extent of absorption vs dose [2, 6]: dose‐proportional
- impact of race (Japanese vs. non-Japanese) on CL/F ([3]; covariate analysis): did not have an impact
- impact of race (Japanese vs. non-Japanese) on K a ([3]; covariate analysis): did not have an impact
- impact of race (Japanese vs. non-Japanese) on V/F ([3]; covariate analysis): did not have an impact
- CL/F in female subjects, lower relative to male subjects ([3]; final PopPK model): 7%
- V/F of typical subject of 0.38 years relative to typical subject of 34 years ([3]; final PopPK model): fourfold higher
- absorption lag time ([3]; final PopPK model, corresponds to 0.299 h): 17.9 min
- time of peak concentrations after dosing ([3]; observed individual concentrations, adult and pediatric patients with SBS, s.c.): 3 to 5 h
- terminal elimination half-life (t 1/2), population estimate ([3]; patients with SBS, final PopPK model): 1.47 h
- mean C max,ss in Japanese adult patients, higher than in non-Japanese adult patients ([3]; s.c. 0.05 mg/kg, SBS): 23%
- mean C max,ss in Japanese pediatric patients, difference from non-Japanese pediatric patients ([3]; s.c. 0.05 mg/kg, SBS): ≤ 20%
- time to total absorption after dosing ([3]; suggested by K a 0.330 h^−1 and lag time 17.9 min): ~10 h
- incidence of adverse events leading to discontinuation of treatment (patients with SBS [4]; 0.05 mg/kg, adult patients with SBS, 24-week study): less than 5%
- responder rate (≥20% reduction from baseline in the volume of PS) (patients with SBS [4]; daily s.c. 0.05 mg/kg, patients with SBS, vs. 30% placebo, p = 0.002): 63%
- AUCinf in individuals with ESRD vs healthy volunteers [5]: more than twofold higher
- C max in individuals with ESRD vs healthy volunteers [5]: more than twofold higher
